Values after ≈ are worked out from the molar mass of the structure shown.
Tested on: KB
Test: Cytotoxicity against human KB cells
Type: functional, cell-based

| Compound | IC50 |
| --- | --- |
| C[C@H](C[C@@H](O)[C@@H]1OC1(C)C)[C@@H]1CC[C@]2(C)[C@]34O[C@@H]3C[C@H]3C(C)(C)C(=O)CC[C@]3(C)[C@H]4CC[C@@]12C [DYVARIABILIN B] | 10 µg/mL (≈ 21.2 µM) |
| C[C@H](C[C@@H](O)[C@@H]1OC1(C)C)[C@@H]1CC[C@]2(C)[C@@]34O[C@H]3C[C@H]3C(C)(C)C(=O)CC[C@]3(C)[C@H]4CC[C@@]12C [DYVARIABILIN C] | 8.7 µg/mL (≈ 18.4 µM) |
| C[C@H](C[C@@H](O)[C@@H]1OC1(C)C)[C@@H]1CC[C@]2(C)C3=CC[C@H]4C(C)(C)C(=O)CC[C@]4(C)[C@H]3CC[C@@]12C [NILOTICIN] | 8.4 µg/mL (≈ 18.4 µM) |

From ChEMBL document CHEMBL1155702, “New tirucallane-type triterpenes from Dysoxylum variabile” (J Nat Prod, 2001)
